# Values joined by “and” are separate entries in the source; they are usually repeats but may differ in a detail not shown here. Identical values can stand only once.
# Assays:
# SW48 (Gastric) = test: MTT in vitro cytotoxicity, 72 hour incubation; type: cell-based; settings: Homo sapiens, MTT assay, SW48 cells
# Experimental: (§1) The in vitro cytotoxicity of a selection of compounds was determined in a panel of cell lines using the standard MTT assay for a 72 hour incubation period (Table 1).
# (§2) Tumor cell lines were maintained in RPMI1640 medium supplemented with 10% heat-inactivated fetal bovine serum, 2 mM L-glutamine and 1 mM sodium pyruvate. 1800 cells per well were seeded in a volume of 180 μl in a 96-well flat bottom polystyrene plate. The cells were allowed to adhere overnight at 37° C. in a CO2 incubator. Ligands were initially formulated in DMSO, and stocks stored at −80° C. They were then further formulated at lox concentration in RPMI1640 medium. 20 μl of diluted samples were added into each treatment well. On each plate, blank wells with no cells, and untreated wells containing cells, were included. Plates were then cultured at 37° C. in a CO2 incubator for 72 hrs. Cytotoxicity was evaluated using a tetrazolium salt-based assay, the MTT assay. After 72 hours, the supernatant was removed from each well and 200 μl of a sterile filtered 500 μg/ml MTT solution in water added to each well. The plates were then incubated at 37° C. in a CO2 incubator for 4 hrs. The supernatant was then removed and the formazan crystals formed solubilized by adding 150 μl of DMSO to each well. The plate was then read on a plate reader at 540 nm, and percentage cell survival calculated as follows: ((mean absorbance treated wells at concentration×−mean absorbance blank wells)÷(mean absorbance untreated wells at concentration×−mean absorbance blank wells))×100. Data were plotted as concentration in nM vs. % cell survival in Microsoft Excel, and IC50 values (concentration where cell survival is reduced by a half) were determined from the graph.
# SW620 (Gastric) = test: MTT in vitro cytotoxicity, 72 hour incubation; type: cell-based; settings: Homo sapiens, SW-620, MTT assay, SW620 cells
# Experimental: as §1, §2
# LIM1215 (Gastric) = test: MTT in vitro cytotoxicity, 72 hour incubation; type: cell-based; settings: MTT assay, LIM1215 cells
# Experimental: as §1, §2
# [1] = Hydrophobicity investigation of free payloads by UPLC (hydrophobicity model); type: physicochemical; settings: single runs 1-3 (triplicate), 0.1% TFA water/acetonitrile gradient
# Experimental: Both mobile phases were filtered through 0.22 μm filters and degassed by sonication under argon. Caffeine (Merck, UPLC grade) was employed a standard. Blank solvent samples (i.e., DMSO) were used during sample runs to confirm lack of carryover between injections and to monitor column performance.
# UPLC-MS analysis was performed on a Waters Acquity H-Class Ultra-Performance Liquid Chromatography (UPLC) System equipped with an Acquity UPLC BEH, […] 50×2.10 mm (Waters, UK) column and a photodiode array detector […], using Waters MassLynx software. The gradient system used for LC analysis consisted of 0.1% trifluoroacetic acid (TFA) in water as Solvent A, and 0.1% trifluoroacetic acid (TFA) in acetonitrile as Solvent B. TFA was purchased from Merck (UK), and diluted to the required concentration with UPLC grade water and acetonitrile for Solvent A and Solvent B, respectively. TFA was added to ensure acidic conditions throughout the analysis. A flow rate of 0.4 mL/min was used, and the detection wavelength was 254 nm. Mass spectrometry data were collected using a Waters SQ Detector 2 coupled to a Waters Acquity H Class UPLC and a Photo Diode Array Detector (ACQ-PDA). The Waters SQ Detector 2 parameters were set to: Capillary (kV), 3.00; Cone (V), 30; De-solvation Temperature (° C.), 600; Cone flow rate (L/h), 50; De-solvation flow rate (L/h), 600.
# Gradient method used: from 95% A/5% B to 20% B over 5 min. Then from 20% B to 60% B over 35 min, followed by from 60% B to 85% B over 10 min. It was further changed from 85% B to 90% B over 5 min and kept for a further 5 min. Finally, from 90% B to 95% B over 2.5 min, and then to 20% B over 2.5 min. 10 μL was split via a zero-dead volume T-piece which passed into the mass spectrometer.
# Compounds were provided in powder form and were dissolved in DMSO to achieve 5 mM stock solution. This solution was then diluted to 500 μM with 50% acetonitrile/50% water.
# A number of commercially available ADC payloads and internal reference compounds were also incorporated into the analysis, and their structures are presented in Table 3.
# RAJI (Lymphoma) = test: MTT in vitro cytotoxicity, 72 hour incubation; type: cell-based; settings: Homo sapiens, MTT assay, RAJI cells
# Experimental: as §1, §2
# JVM2 (Lymphoma) = test: MTT in vitro cytotoxicity, 72 hour incubation; type: cell-based; settings: Homo sapiens, JVM-2, MTT assay, JVM2 cells
# Experimental: as §1, §2
# Jurkat (Leukaemia) = test: MTT in vitro cytotoxicity, 72 hour incubation; type: cell-based; settings: Homo sapiens, MTT assay, Jurkat cells
# Experimental: as §1, §2
Compound,IC50 (SW48 (Gastric)),IC50 (SW620 (Gastric)),IC50 (LIM1215 (Gastric)),Retention Time (min) seco form ([1]; seco form),Retention Time (min) spiro form ([1]; spiro form),IC50 (RAJI (Lymphoma)),IC50 (JVM2 (Lymphoma)),IC50 (Jurkat (Leukaemia))
"CNS(=O)(=O)c1ccc(C2=CCN3C(=O)c4cc(OC)c(OCc5cccc(CC(=O)N6C[C@@H](CCl)c7c6cc(O)c6ccccc76)n5)cc4N=C[C@@H]3C2)cc1 [Compound 35, 4-((S)-3-((6-(2-((S)-1-(Chloromethyl)-5-hydroxy-1,2-dihydro-3H-benzo[e]indol-3-yl)-2-oxoethyl)pyridin-2-yl)methoxy)-2-methoxy-12-oxo-6a,7,10,12-tetrahydrobenzo[e]pyrido[1,2-a][1,4]diazepin-8-yl)-N-methylbenzenesulfonamide]",3.15 nM,2.12 nM,4.38 nM,–,–,–,–,–
"CNS(=O)(=O)c1ccc(C2=CCN3C(=O)c4cc(OC)c(OCCCCCC(=O)N5C[C@@H](CCl)c6c5cc(O)c5ccccc65)cc4N=C[C@@H]3C2)cc1 [Compound 72, 4-((S)-3-((6-((S)-1-(Chloromethyl)-5-hydroxy-1,2-dihydro-3H-benzo[e]indol-3-yl)-6-oxohexyl)oxy)-2-methoxy-12-oxo-6a,7,10,12-tetrahydrobenzo[e]pyrido[1,2-a][1,4]diazepin-8-yl)-N-methylbenzenesulfonamide]",0.29 nM,0.21 nM,0.32 nM,24.02 min and 24.04 min,17.11 min and 17.15 min,0.0019 nM,0.0016 nM,0.0015 nM
"CNS(=O)(=O)c1ccc(C2=CCN3C(=O)c4cc(OC)c(OCc5cccc(CC(=O)N6C[C@@H](CCl)c7c6cc(O)c6ccccc76)c5)cc4N=C[C@@H]3C2)cc1 [Compound 31, 4-((S)-3-((3-(2-((S)-1-(Chloromethyl)-5-hydroxy-1,2-dihydro-3H-benzo[e]indol-3-yl)-2-oxoethyl)benzyl)oxy)-2-methoxy-12-oxo-6a,7,10,12-tetrahydrobenzo[e]pyrido[1,2-a][1,4]diazepin-8-yl)-N-methylbenzenesulfonamide]",1.3 nM,0.35 nM,2.7 nM,–,–,–,–,–
